Reference: US4238620A, “Dibenz[b,f]oxepin and dibenzo[b,f]thiepin derivatives, process for preparation thereof, method of using the same, and compositions thereof” (priority 1978, dated 1980)
“Also recorded” adds a separate entry of the source.

Key:
[1] = tested on: Carrageenin-induced hind paw oedema in rats; test: Carrageenin-induced hind paw oedema in rats (CAR method), acute inflammation; assay type: in vivo; details: Rattus norvegicus, po, read-out: Anti-inflammatory activity ED50, acute inflammation, CAR
Method: (§1) (1) Effect on acute inflammation:
(a) Carrageenin-induced hind paw oedema in rats (CAR method)
The test was carried out according to the method described in Proc. Soc. Exp. Biol. Med., 111, 544 (1962).

[2] = tested on: Ultraviolet-induced erythema in guinea-pigs; test: Ultraviolet-induced erythema in guinea-pigs (UVE method), acute inflammation; assay type: in vivo; details: Cavia porcellus, po, read-out: Anti-inflammatory activity ED50, acute inflammation, UVE
Method: as §1
(b) Ultraviolet-induced erythema in guinea-pigs (UVE method)
The test was carried out according to the method described in Arch. Int. Pharmacodyn. Ther., 116, 261 (1958).

[3] = tested on: adjuvant-induced arthritis in rats; test: Therapeutic activity on adjuvant-induced arthritis in rats (AAT method), subacute and chronic inflammation; assay type: in vivo; details: Rattus norvegicus, po, read-out: Minimum Effective Dose, subacute and chronic inflammation, AAT*
Method: (§2) (2) Effect on subacute and chronic inflammations:
(a) Therapeutic activity on adjuvant-induced arthritis in rats (AAT method)
The test was carried out according to the method described in Brit. J. Pharmacol., 21, 127 (1963) and Japan J. Pharmacol., 23, 58 (1973).

[4] = tested on: Felt pellet-induced granuloma formation in rats; test: Felt pellet-induced granuloma formation in rats (FGF method), subacute and chronic inflammation; assay type: in vivo; details: Rattus norvegicus, po, read-out: Minimum Effective Dose, subacute and chronic inflammation, FGF*
Method: as §2
(b) Felt pellet-induced granuloma formation in rats (FGF method)
The test was carried out according to the method described in J. Amer. Pharm. Assoc., 46, 515 (1957) and Chem. Pharm. Bull., 23, 1446 (1975).

[5] = tested on: AgNO3-induced joint pain in rats; test: AgNO3-induced joint pain in rats (AGP method), analgesic activity; assay type: in vivo; details: Rattus norvegicus, po, read-out: Analgesic activity ED50, AGP
Method: (§3) TEST 2. ANALGESIC ACTIVITY
(a) AgNO3 -induced joint pain in rats (AGP method)
The test was carried out according to the method described in J. Pharmacol. Expt. Ther., 98, 19 (1950)

[6] = tested on: Acetic acid (AcOH)-induced writhing in rats; test: Acetic acid (AcOH)-induced writhing in rats (ACW method), analgesic activity; assay type: in vivo; details: Rattus norvegicus, po, read-out: Analgesic activity ED50, ACW
Method: as §3
(b) Acetic acid (AcOH)-induced writhing in rats (ACW method)
The test was carried out according to the method described in Arzneim. Forsch., 25, 1505 (1975).

[7] = tested on: Yeast-induced fever in rats; test: Yeast-induced fever in rats (YEF method), antipyretic activity; assay type: in vivo; details: Rattus norvegicus, po, read-out: Antipyretic activity ED50, YEF
Method: TEST 3. ANTIPYRETIC ACTIVITY
Yeast-induced fever in rats (YEF method)
The test was carried out according to the method described in Arzneim. Forsch., 13, 338 (1963).

[8] = Gastrointestinal ulcer formation in fed rats (ulcerogenicity); assay type: in vivo; details: rat, in vivo, po, fed rats; read-out: UD50 (50% ulcer forming dose)
Method: (§4) TEST 4. ULCEROGENICITY IN GASTROINTESTINAL TRACT
(§5) Gastrointestinal ulcer formation in fed rats
(§6) The test was carried out according to the method described in Science, 170, 183 (1970).

[9] = tested on: Gastrointestinal ulcer formation in fed rats; test: as above; assay type: in vivo
Method: as §4, §5, §6

in vivo [10] = details: rat, po, rats, once daily for 5 days, mortality on 6th day, read-out: LD50 Repeated
Method: (§7) (b) Repeated administrations in rats
(§8) Test compounds were orally administered once daily for 5 days, and LD50 -value was calculated from the mortality on the 6th day.

[11] = Overall comparison of anti-inflammatory, analgesic and antipyretic activities (Tests 1 to 3); assay type: in vivo, rats; guinea-pigs; details: for anti-inflammatory, analgesic and antipyretic activities compared with indomethacin: vs indomethacin (compound 3)
Text: (§9) From these diagrams, the correlation between the pharmacological activity of each compound and its ulcerogenicity and toxicity, i.e. the safety margin of each compound, can be clearly seen. In these Figures, the lines and letters have the following meanings:
(§10) The following conclusions can be drawn from Tables I to III and FIGS. 1 and 2. In the following description, the therapeutic index means LD50 /ED50 (or MED), and the safety index means UD50 /ED50 (or MED). The safety margin of a given compound is broader when it has larger therapeutic and or safety indices.

[12] = assay type: in vivo; details: for therapeutic index compared with indomethacin: vs indomethacin
Text: In the following description, the therapeutic index means LD50 /ED50 (or MED), and the safety index means UD50 /ED50 (or MED).

[13] = Safety index (UD50/ED50 or MED), separation of activity from ulcerogenicity; assay type: in vivo; details: for separation of anti-inflammatory, analgesic and antipyretic activities from ulcerogenicity: FIGS. 1 and 2, vs indomethacin
Text: as §9, §10

rats = test: Overall comparison of lethal toxicity (Test 5); assay type: in vivo; details: for toxicity compared with indomethacin (in words): vs indomethacin
Method: (a) Single administration in rats
as §7, §8

in vivo [14] = details: rat, po, rats, single administration, 7th day, read-out: LD50 Single
[15] = cited from earlier work
[16] = cited from earlier work; remark: listed apart in the source

SMILES | ED50 [1] | ED50 [2] | minimal effective dose [3] | minimal effective dose [4] | ED50 [5] | ED50 [6] | ED50 [7] | TD50 [8] | LD50 at 144 h (in vivo [10]) | anti-inflammatory, analgesic and antipyretic activities compared with indomethacin [11] | therapeutic index compared with indomethacin [12] | separation of anti-inflammatory, analgesic and antipyretic activities from ulcerogenicity [13] | toxicity compared with indomethacin (in words) (rats) | other results
Cc1ccc2c(c1)CC(=O)c1cc(C(C)C(=O)O)ccc1S2 (racemic) [compound C, dl-2-(8-Methyl-10,11-dihydro-11-oxodibenzo[b,f]thiepin-2-yl)propionic acid] | 2.08 mg/kg | 0.85 mg/kg | < 0.2 mg/kg/day | 1 mg/kg/day | 1.41 mg/kg | 0.84 mg/kg | 0.015 mg/kg | 2.76 mg/kg | > 12 mg/kg | equivalent or superior to those of indomethacin | far larger therapeutic indices than indomethacin | more separated from ulcerogenicity in the gastrointestinal tract than in indomethacin; also recorded: Especially good separation | far weaker than those of indomethacin | ulcerogenicity relative to compound 2 ([9]; fraction of that of compound 2): about 1/4; pharmacological activities compared with compound 2 ([11]; vs compound 2): comparable or slightly inferior to those of compound 2; average therapeutic index relative to compound 2 ([12]; LD50/ED50 (or MED), vs compound 2): more than 5 times; breadth of safety margin compared with compound 2 ([12]; safety margin, vs compound 2): far superior to compound 2; average safety index relative to compound 2 ([13]; UD50/ED50 (or MED), vs compound 2): about 4 times; toxicity relative to compound 2 (rats; fraction of that of compound 2): less than 1/6
Cc1ccc2c(c1)CC(=O)c1cc(C(C)C(=O)OCCOCCO)ccc1O2 (racemic) [compound E, 2-(2-Hydroxyethoxy)ethyl dl-2-(8-methyl-10,11-dihydro-11-oxodibenz[b,f]oxepin-2-yl)propionate] | 3.61 mg/kg | 1.41 mg/kg | 0.2 mg/kg/day | 2 mg/kg/day | 3.8 mg/kg | 0.27 mg/kg | 0.055 mg/kg | 4.04 mg/kg | > 16 mg/kg | equivalent or superior to those of indomethacin | far larger therapeutic indices than indomethacin | more separated from ulcerogenicity in the gastrointestinal tract than in indomethacin; also recorded: Especially good separation | far weaker than those of indomethacin | ulcerogenicity and toxicity compared with compound A ([9]; ulcerogenicity together with toxicity, vs compound A): weaker than those of compound A; LD50 at 168 h (in vivo [14]): 219 mg/kg; pharmacological activities compared with compound 1 ([11]; vs compound 1): equivalent to, or more potent, than those of compound 1; pharmacological activities compared with compound A ([11]; vs compound A): somewhat inferior to those of compound A; average safety and therapeutic indices compared with compound A ([12]; safety and therapeutic indices, vs compound A): comparable to those of compound A; breadth of safety margin compared with compound 1 ([12]; safety margin, vs compound 1): better
O=C(O)Cc1ccc2c(c1)CC(=O)c1ccccc1S2 [10,11-dihydro-10-oxodibenzo[b,f]thiepin-2-acetic acid] | – | – | – | – | – | – | – | – | – | – | – | – | – | anti-inflammatory activity relative to phenylbutazone [15]: 0.4 time; analgesic activity relative to aspirin [16]: equivalent to that of aspirin
